Data as given in PMC3038857, “Using Nuclear Receptor Activity to Stratify Hepatocarcinogens” (PLoS ONE, 2011).
Read-outs that look alike come from different tables or passages of the source.

Experiments:
Rat Liver [1] = settings: ref ToxRefDB, cited from earlier work
Mouse Liver [2] = settings: ref ToxRefDB, cited from earlier work
Rat Liver [3] = settings: ref ToxRefDB, cited from earlier work; remark: listed apart in the source
Mouse Liver [4] = settings: mouse chronic study, liver; coded 6 / Inf, code not explained in table; ref ToxRefDB; cited from earlier work
Rat Liver [5] = settings: ref ToxRefDB, cited from earlier work; remark: listed apart in the source
Mouse Liver [6] = settings: mouse chronic study, liver; coded 6 / Inf, code not explained in table; ref ToxRefDB; cited from earlier work; remark: listed apart in the source
PXR (NR1I2) [7] = molecular target: T1, PXR (NR1I2) (Homo sapiens, UniProt O75469); assay: ATG_PXRE_CIS: Factorial reporter gene assay (HepG2); format: cell-based; set-up: endogenous in cells; host or cells: HepG2; settings: HepG2
T1 sequence (O75469 1-434): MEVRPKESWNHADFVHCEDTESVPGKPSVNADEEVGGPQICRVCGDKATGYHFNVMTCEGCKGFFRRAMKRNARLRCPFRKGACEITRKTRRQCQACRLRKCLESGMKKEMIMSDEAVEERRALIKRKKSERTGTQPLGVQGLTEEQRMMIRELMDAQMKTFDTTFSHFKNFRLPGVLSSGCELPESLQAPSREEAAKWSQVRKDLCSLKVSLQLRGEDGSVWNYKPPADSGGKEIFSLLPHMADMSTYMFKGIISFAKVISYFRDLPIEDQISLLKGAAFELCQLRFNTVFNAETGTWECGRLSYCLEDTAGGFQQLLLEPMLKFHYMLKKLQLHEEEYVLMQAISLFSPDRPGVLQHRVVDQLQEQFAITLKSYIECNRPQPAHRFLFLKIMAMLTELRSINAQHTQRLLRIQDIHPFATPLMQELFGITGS
Protocol: (§1) A multiple reporter transcription unit (MRTU) library consisting of 48 transcription factor binding sites was transfected into the HepG2 human liver hepatoma cell line. In addition to the cis-acting reporter genes (CIS), a modification of the approach was used to generate a trans-system (TRANS) with a mammalian one-hybrid assay consisting of an additional 25 MRTU library reporting the activity of nuclear receptor super-family members. […] These assays were performed by Attagene Inc. (Morrisville NC) under contract to EPA.
(§2) In addition to the cis-acting reporter genes (CIS), a modification of the approach was used to generate a trans-system (TRANS) with a mammalian one-hybrid assay consisting of an additional 25 MRTU library reporting the activity of nuclear receptor super-family members. […] Chemicals were then tested in the CIS and TRANS assays at seven concentrations starting at the MTC and followed by three-fold serial dilutions. These assays were performed by Attagene Inc. (Morrisville NC) under contract to EPA. Detailed description of the methods, data and analysis methods for this dataset will be presented in a separate publication.

CYP2B6 = assay: CLZD_CYP2B6: Change in expression of CYP2B6 (primary human hepatocytes); format: cell-based; settings: 24 hr
Protocol: (§3) This is a collection of multiplexed gene expression assays focused on Phase I and II xenobiotic metabolizing enzymes and transporters. Human primary cell cultures were treated with chemicals at 5 concentrations (0.004-40 [drawing 42] M) for 6, 24 and 48 hr. Concentration- and time-response profiles of chemicals were measured by the expression of key nuclear receptor target genes, activities of CYP1A enzymes (EROD), and cell morphology. Fourteen gene targets were monitored by quantitative nuclease protection assay including: six representative cytochrome P-450 genes, four hepatic transporters, three Phase II conjugating enzymes, and one endogenous metabolism gene involved in cholesterol synthesis. The target genes associated with nuclear receptor pathways are as follows: [drawing 43] and [drawing 44] with [drawing 45]; [drawing 46] , [drawing 47] , [drawing 48] , [drawing 49] , [drawing 50] and [drawing 51] with [drawing 52]; [drawing 53] , [drawing 54] , [drawing 55] and [drawing 56] with [drawing 57]; [drawing 58] with [drawing 59]; and [drawing 60] with [drawing 61] . Assays were run in primary human hepatocyte cultures by CellzDirect Invitrogen Inc. (Durham, NC), in collaboration with EPA.
(§4) Multiplexed Gene Expression in Human Primary Hepatocytes: This is a collection of multiplexed gene expression assays focused on Phase I and II metabolic enzymes and transporters. […] Fourteen gene targets were monitored by quantitative nuclease protection assay: six representative cytochrome P450 genes, four hepatic transporters, three Phase II conjugating enzymes, and one endogenous metabolism gene involved in cholesterol synthesis. Cells were exposed at 5 concentrations (0.004-40 µM) for 6, 24 or 48 hr. Gene targets are sentinels for five nuclear receptor signaling pathways: AhR, CAR, PXR, FXR, and PPARα. All gene are associated with nuclear receptor pathways: CYP1A1 and CYP1A2 with AHR; ABCB1, ABCG2, CYP2B6, CYP2C9, CYP2C19 and UGT1A1 with CAR; CYP3A4, GSTA2, SLCO1B1 and SULT2A1 with PXR; HMGCS2 with PPARA; and ABCB11 with FXR. […] Detailed description of the methods, data and analysis methods for this dataset will be presented in a separate publication.

PXR (NR1I2) [8] = molecular target: T1, PXR (NR1I2); assay: NVS_NR_hPXR: Human PXR Fluormone PXR (SXR) green (cell-free HTS); format: binding
Source text: These are a collection of biochemical assays measuring binding constants and enzyme inhibition values. Chemicals were initially screened at a single concentration in duplicate wells at a concentration of 10 [drawing 63] M for cytochrome P-450 assays and 25 [drawing 64] M for all others. […] These assays were run by Caliper Life Sciences (Hanover, MD) under contract to EPA. Short assay descriptions are available at: http://www.caliperls.com/products/contract-research/in-vitro/.
Cell-free HTS Assays: A collection of biochemical assays measuring binding constants and enzyme inhibition values. […] These assays were run by Caliper Life Sciences (Hanover, MD) under contract to EPA. Short assay descriptions are available at http://www.caliperls.com/products/contract-research/in-vitro/. Values for all endpoints were imported into GeneData Screener (Basel, Switzerland) and normalised to solvent controls from the same plate as the tested compounds and expressed as percent of neutral control. Concentration-response curves were fit in GeneData Screener (Basel, Switzerland) Condeseo module using the Hill equation and AC50 values were determined. […] Detailed description of the methods, data and analysis methods for this dataset are described in a separate publication.

PXR (NR1I2) [9] = molecular target: T1, PXR (NR1I2); assay: ATG_PXR_TRANS: Factorial reporter gene assay (HepG2); format: cell-based; set-up: endogenous in cells; host or cells: HepG2; settings: HepG2
Protocol: as §1, §2

CYP1A1 = assay: CLZD_CYP1A1: Change in expression of CYP1A1 (primary human hepatocytes); format: cell-based; settings: 24 hr
Protocol: as §3, §4

[10] = molecular target: T2, PPARG (peroxisome proliferator-activated receptor gamma) (Homo sapiens, UniProt P37231); assay: ATG_PPARg_TRANS: Factorial reporter gene assay (HepG2); format: cell-based; settings: HepG2
T2 construct: expressed in transfected cells; host or cells: HepG2
T2 sequence (P37231 1-505): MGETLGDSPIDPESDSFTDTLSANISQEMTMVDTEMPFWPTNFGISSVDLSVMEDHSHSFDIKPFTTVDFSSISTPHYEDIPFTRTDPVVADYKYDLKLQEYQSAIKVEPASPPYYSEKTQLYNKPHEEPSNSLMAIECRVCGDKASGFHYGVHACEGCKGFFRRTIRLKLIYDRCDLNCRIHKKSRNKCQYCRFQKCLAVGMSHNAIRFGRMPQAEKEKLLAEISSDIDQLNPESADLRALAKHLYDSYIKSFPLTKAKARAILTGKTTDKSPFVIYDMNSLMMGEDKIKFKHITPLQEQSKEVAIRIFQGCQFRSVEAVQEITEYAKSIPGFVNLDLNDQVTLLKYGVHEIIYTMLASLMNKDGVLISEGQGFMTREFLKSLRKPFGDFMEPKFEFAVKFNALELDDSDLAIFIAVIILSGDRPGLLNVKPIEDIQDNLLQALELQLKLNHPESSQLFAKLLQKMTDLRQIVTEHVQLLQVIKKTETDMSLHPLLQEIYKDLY
Protocol: as §1, §2

CYP1A2 = assay: CLZD_CYP1A2: Change in expression of CYP1A2 (primary human hepatocytes); format: cell-based; settings: 24 hr
Protocol: as §3, §4

CYP3A4 = assay: CLZD_CYP3A4: Change in expression of CYP3A4 (primary human hepatocytes); format: cell-based; settings: 24 hr
Protocol: as §3, §4

[11] = rat chronic study, liver, coded 6 / 0, code not explained in table
[12] = mouse chronic study, liver, coded 6 / Inf, code not explained in table

Compound | CHR_Rat_Liver_3_NeoplasticLesion (Rat Liver [1]; [11]) | CHR_Mouse_Liver_1_AnyLesion (Mouse Liver [2]; [12]) | CHR_Rat_Liver_1_AnyLesion (Rat Liver [3]; [11]) | CHR_Mouse_Liver_3_NeoplasticLesion (Mouse Liver [4]) | CHR_Rat_Liver_2_PreneoplasticLesion (Rat Liver [5]; [11]) | CHR_Mouse_Liver_2_PreneoplasticLesion (Mouse Liver [6]) | ATG_PXRE_CIS (PXR (NR1I2) [7]) | CLZD_CYP1A1_24 (CYP1A1) | ATG_PPARg_TRANS [10] | also measured
CN1COCN(Cc2cnc(Cl)s2)/C1=N\[N+](=O)[O-] [chemical 296] | 0 | 6 | 6 | 6 | 0 | 6 | – | – | – | –
CS/C(C)=N/OC(=O)N(C)SN(C)C(=O)O/N=C(\C)SC [chemical 300] | 0 | 6 | 0 | 6 | 0 | 6 | – | – | – | –
COC(=O)NC(=S)Nc1ccccc1NC(=S)NC(=O)OC [chemical 301] | – | 6 | – | 6 | – | 6 | – | – | – | –
CC(C)(C)C(=O)C(Oc1ccc(Cl)cc1)n1cncn1 (stereo not shown) [chemical 304] | 0 | 6 | 6 | 6 | 0 | 6 | – | – | – | –
CC(C)(C)C(O)C(Oc1ccc(Cl)cc1)n1cncn1 (stereo not shown) [chemical 305] | 0 | 6 | 0 | 6 | 0 | 6 | – | – | – | –
CCC(CC)Nc1c([N+](=O)[O-])cc(C)c(C)c1[N+](=O)[O-] [r238] | – | – | – | – | – | – | 4.959 | 5.24 | 4.167 | CHR_Rat_Liver_3_NeoplasticLesion (Rat Liver [1]; rat, chronic study): 0; CLZD_CYP2B6_24 (CYP2B6): 4.988; NVS_NR_hPXR (PXR (NR1I2) [8]): 5.143; ATG_PXR_TRANS (PXR (NR1I2) [9]): 4.432; CHR_Rat_Liver_1_AnyLesion (Rat Liver [3]; rat, chronic study): 6; CHR_Rat_Liver_2_PreneoplasticLesion (Rat Liver [5]; rat, chronic study): 6
CC(C)Nc1nc(Cl)nc(NC(C)C)n1 [r260] | – | – | – | – | – | – | 4.569 | 4.988 | 4.481 | CHR_Rat_Liver_3_NeoplasticLesion (Rat Liver [1]; rat, chronic study): 0; CHR_Mouse_Liver_1_AnyLesion (Mouse Liver [2]; mouse, chronic study): 6; CLZD_CYP2B6_24 (CYP2B6): 5.165; ATG_PXR_TRANS (PXR (NR1I2) [9]): 4.469; CHR_Rat_Liver_1_AnyLesion (Rat Liver [3]; rat, chronic study): 0; CHR_Rat_Liver_2_PreneoplasticLesion (Rat Liver [5]; rat, chronic study): 0; CLZD_CYP1A2_24 (CYP1A2): 5.254; CLZD_CYP3A4_24 (CYP3A4): 5.248
S=C([S-])NCCNC(=S)[S-].[Zn+2] [row 207] | – | – | – | – | – | – | 4.387 | 5.214 | 4.409 | CHR_Rat_Liver_3_NeoplasticLesion (Rat Liver [1]; chronic rat study, liver): 0; NVS_NR_hPXR (PXR (NR1I2) [8]): 5.59; CHR_Rat_Liver_1_AnyLesion (Rat Liver [3]; chronic rat study, liver): 0; CHR_Rat_Liver_2_PreneoplasticLesion (Rat Liver [5]; chronic rat study, liver): 0; CLZD_CYP1A2_24 (CYP1A2): 5.296
